Values of other authors in PMC7414093 (Proceedings of the National Academy of Sciences of the …, 2020).
Numbered stars: 1 amine (or outer) side, 2 acyl side, 3 side chain; on linkers, the order of the positions; unused ones are H or OH. Bridge positions count the residues as written; N and C are the ends. Square brackets hold non-standard residues; d marks the D form. Peptide text beside a SMILES is read from it. Phe(3,4-Cl2) = N[C@@H](Cc1ccc(Cl)c(Cl)c1)C(=O)O; X1 = NCCC(=O)N[C@@H](CN[*:2])C(=O)[*:1]; hhPhe = N[C@@H](CCCc1ccccc1)C(=O)O; NMeL = CN[C@@H](CC(C)C)C(=O)O; Orn = NCCC[C@H](N)C(=O)O

Test system: HA
Set-up: method as in PMID 28971971
Details: AlphaLISA, HB80.4 as competitor for HA binding; cited from earlier work

**Q.** For `CC(=O)N[C@@H](CCCc1ccccc1)C(=O)N[C@H]1CCCNC(=O)[C@@H](NC(=O)CCN)CNC(=O)[C@H](CO)NC(=O)[C@H](CC(C)C)NC(=O)[C@H](Cc2c[nH]c3ccccc23)NC(=O)[C@H](CCC(=O)O)NC(=O)[C@H](Cc2ccc(Cl)c(Cl)c2)NC(=O)[C@H](Cc2ccc(O)cc2)NC(=O)[C@H](CCC(=O)O)NC(=O)[C@H](CC(C)C)N(C)C1=O` [P7] (Ac-[hhPhe][Orn][NMeL]EY[Phe(3,4-Cl2)]EWLS; linker 2-C via X1), which EC50 is on record?
**A.** 30 to 70 nM
